Bases are written 5' to 3'; sugars and linkages follow in the same order, as letters with counts (s phosphorothioate, o phosphodiester; PS: all linkages phosphorothioate). C may stand for cytosine or 5-methylcytosine; the collection does not tell. l = locked nucleic acid (LNA); d = 2'-deoxy (DNA)

For this data set, the target named is HIF1A. The experiment in a line: HeLa, 100 nM transfected, 24 h, mean of 3. The settings on record: ASO.

TTACTGCCTTCTT (sugars l4 d7 l2, PS) registered a caspase activation (% of PBS control) of 337.
Consider “GTTACTGCCTTCTTAC (sugars l3 d8 l1 d3 l1, PS)”, for which the caspase activation (% of PBS control) was 198.
Sequence “TGGCAAGCATCCTGTA (sugars lddldddddddlddll, PS)” came in with a caspase activation (% of PBS control) of 271.
As for “TGGCAAGCATCCTGTA (sugars l1 d10 l2 d1 l2, PS)”, the figure is 444.
As to “TGGCAAGCATCCTGTA (sugars ldldldddddddlldl, PS)”, the caspase activation (% of PBS control) turned out to be 218.
In turn, “TGGCAAGCATCCTGTA (sugars ldlddddddddldlll, PS)” came in with a caspase activation (% of PBS control) of 195.
As for “TGGCAAGCATCCTGTA (sugars lldldddddddldddl, PS)”, the figure is 322.
For the sequence “GTTACTGCCTTCTTAC (sugars l5 d6 l1 d3 l1, PS)”, the caspase activation (% of PBS control) was 454.
The sequence GTTACTGCCTTCT (sugars l3 d8 l2, PS) gave a caspase activation (% of PBS control) of 164.
Next, “GTTACTGCCTTCTTAC (sugars ldldlddddddddlll, PS)”: 214.
Next, “TGGCAAGCATCCTGTA (sugars lddllddddddldldl, PS)”: 402; “GTTACTGCCTTCT (sugars l1 d1 l1 d8 l2, PS)”: 123; “GGCAAGCATCCTG (sugars lldlddddddldl, PS)”: 334.
“TGGCAAGCATCCTGTA (sugars lldlldddddddlldl, PS)” displayed a caspase activation (% of PBS control) of 362.
As for “GTTACTGCCTTCTTAC (sugars lddllddddddllddl, PS)”, the figure is 268.
For the sequence “GTTACTGCCTTCTTAC (sugars l4 d7 l2 d1 l2, PS)”, the caspase activation (% of PBS control) was found to be 291.
As for TGGCAAGCATCCTGTA (sugars l3 d8 l5, PS), the figure is 476; as for “GTTACTGCCTTCTTAC (sugars lldldddddddldldl, PS)”, 193.
Next, “CAAGCATCCTGTA (sugars l1 d1 l1 d9 l1, PS)”: 121.
As for “GTTACTGCCTTCTTAC (sugars ldllldddddddlldl, PS)”, the figure is 470; as for “TGGCAAGCATCCTGTA (sugars ldlllddddddllldl, PS)”, 490.
The sequence “TACTGCCTTCTTA (sugars l1 d1 l1 d9 l1, PS)” yielded a caspase activation (% of PBS control) of 193.
Next, TGGCAAGCATCCTGTA (sugars l1 d11 l4, PS): 346; “GTTACTGCCTTCT (sugars l3 d7 l1 d1 l1, PS)”: 161; “TGGCAAGCATCCTGTA (sugars llldldddddddlldl, PS)”: 367.
As for “TGGCAAGCATCCTGTA (sugars l5 d8 l1 d1 l1, PS)”, the figure is 401; as for “TGGCAAGCATCCTGTA (sugars l1 d1 l1 d10 l3, PS)”, 188.
As for “GTTACTGCCTTCTTAC (sugars l5 d6 l2 d2 l1, PS)”, the figure is 492; as for “TTACTGCCTTCTT (sugars l3 d7 l1 d1 l1, PS)”, 205; as for “TGGCAAGCATCCTGTA (sugars l3 d1 l1 d8 l3, PS)”, 413.
On to “TTACTGCCTTCTT (sugars l1 d1 l1 d8 l2, PS)”, for which the caspase activation (% of PBS control) amounted to 146.
As for “GTTACTGCCTTCTTAC (sugars l3 d1 l1 d8 l3, PS)”, the figure is 264.
Next, “GTTACTGCCTTCTTAC (sugars lddlldddddddlldl, PS)”: 374; “ACTGCCTTCTTAC (sugars ldldddddddldl, PS)”: 208; “TTACTGCCTTCTT (sugars l1 d2 l1 d6 l3, PS)”: 131.
As for “GTTACTGCCTTCTTAC (sugars l1 d3 l1 d10 l1, PS)”, the figure is 130; as for TGGCAAGCATCCTGTA (sugars l3 d10 l3, PS), 273; as for “TACTGCCTTCTTA (sugars l4 d6 l1 d1 l1, PS)”, 508.
Sequence GGCAAGCATCCTG (sugars l4 d6 l3, PS) returned a caspase activation (% of PBS control) of 618.
As for “GCAAGCATCCTGT (sugars ldldddddddldl, PS)”, the figure is 181; as for “ACTGCCTTCTTAC (sugars l1 d2 l1 d8 l1, PS)”, 119; as for “GTTACTGCCTTCTTAC (sugars l1 d1 l3 d9 l2, PS)”, 292.
Regarding “ACTGCCTTCTTAC (sugars lldlddddddldl, PS)”, the caspase activation (% of PBS control) amounted to 146.
“TGGCAAGCATCCTGTA (sugars l4 d8 l2 d1 l1, PS)” returned a caspase activation (% of PBS control) of 425.
Next, “TGGCAAGCATCCTGTA (sugars ldddldddddddlldl, PS)”: 167.
Turning to “TGGCAAGCATCCTGTA (sugars llddldddddddldll, PS)”, the caspase activation (% of PBS control) amounted to 401.
“GTTACTGCCTTCTTAC (sugars llddlddddddldddl, PS)” showed a caspase activation (% of PBS control) of 191.
ACTGCCTTCTTAC (sugars l3 d7 l3, PS) came in with a caspase activation (% of PBS control) of 403.
The sequence ACTGCCTTCTTAC (sugars l2 d10 l1, PS) showed a caspase activation (% of PBS control) of 171.
As for TGGCAAGCATCCTGTA (sugars l4 d8 l4, PS), the figure is 349; as for “TGGCAAGCATCCTGTA (sugars ldlldddddddllldl, PS)”, 438.
As for “GGCAAGCATCCTG (sugars ldllddddddldl, PS)”, the figure is 370; as for TGGCAAGCATCCTGTA (sugars l1 d12 l3, PS), 217; as for “TGGCAAGCATCCTGTA (sugars ldddlddddddldlll, PS)”, 230.
Next, “GTTACTGCCTTCTTAC (sugars l5 d7 l1 d1 l2, PS)”: 454; “GTTACTGCCTTCTTAC (sugars l2 d2 l1 d8 l3, PS)”: 237; “TGGCAAGCATCCTGTA (sugars l3 d8 l3 d1 l1, PS)”: 449.
Sequence “TGGCAAGCATCCTGTA (sugars lldldddddddlddll, PS)” came in with a caspase activation (% of PBS control) of 460.
Next, “GTTACTGCCTTCTTAC (sugars l4 d9 l1 d1 l1, PS)”: 191; TGGCAAGCATCCT (sugars l3 d9 l1, PS): 287; “GTTACTGCCTTCTTAC (sugars l2 d11 l1 d1 l1, PS)”: 129.
As for TGGCAAGCATCCTGTA (sugars l5 d7 l4, PS), the figure is 358.
As for “GTTACTGCCTTCTTAC (sugars l1 d2 l2 d10 l1, PS)”, the figure is 185; as for “TGGCAAGCATCCTGTA (sugars ldldlddddddddldl, PS)”, 176.
